Experimental data published in patent US20050220912A1, “Anti-inflammatory composition for treating pelvic endometriosis” (priority 2004, published 2005).

How the values were obtained:
[1] = Chondroitin sulfate solubility in oils; type: physicochemical; conditions: in codfish oil, corn oil and olive oil (from the flesh of the olive)
Excerpt: Parallel experiments with codfish oil, corn oil and olive oil (from the flesh of the olive) were comtemplated, but chondroitin sulfate solubility in these oils was insufficient to meet the requirements of the experiment.

[2] = Effect of olive kernel extract on absorption of tritiated chondroitin sulfate in vivo (serum radioactivity after oral capsule); parameters: species or system male Sprague-Dawley rats; conditions: serum radioactivity at 8 hours
Description: Chondroitin sulfate was tritiated by New England Nuclear Corp. to a specific activity of 4.3 mCi/ml.
Unlabeled chondroitin sulfate was dissolved in olive kernel extract at a ratio of about 55 w/v chondroitin sulfate powder to about 450 w/v of olive kernel extract (2.9% acidity as oleic acid, 1.03% water, 0.08% hexane). To this solution was added 20.2 microcuries of the labeled chondroitin sulfate. AAA gelatin capsules were filled with the resulting solution using an aluminum template molding device.
The laboratory animals (250 g male Sprague-Dawley rats) were kept overnight without food but with free access to water. One capsule containg the above-described chondroitin sulfate-olive kernel extract solution was given to each rat per os. Control animals were given the equivalent amount of chondroitin, but without olive kernel extract. The animals were then given free access to food. Serum radioactivity was measured 8 hours thereafter in a beta scintillation counter.

[3] = commercially available chondroitin sulfate preparations (cow trachea); cited from earlier work

chondroitin sulfate
chondroitin sulfate solubility [1]: insufficient | dose of labeled chondroitin sulfate that reached the circulation ([2]; control animals, per os capsule without olive kernel extract, n=3): about 3.9%+/−0.4% | dose of labeled chondroitin sulfate absorbed into the general circulation ([2]; per os capsule, chondroitin sulfate dissolved in olive kernel extract, n=4): about 14.3%+/−0.7% | Absorption from g.i. tract / absorbed orally [3]: less than 5%
